Reference: ChEMBL document CHEMBL4507319 (2021)

Assays:
Details in all cases: Compound concentration 1000.0 nM
[1] = target: Serine/threonine-protein kinase RIO1 (Homo sapiens) (UniProt Q9BRS2)
[2] = target: T1, Serine/threonine-protein kinase 4 (Homo sapiens) (UniProt Q13043)
T1 sequence (whole entry): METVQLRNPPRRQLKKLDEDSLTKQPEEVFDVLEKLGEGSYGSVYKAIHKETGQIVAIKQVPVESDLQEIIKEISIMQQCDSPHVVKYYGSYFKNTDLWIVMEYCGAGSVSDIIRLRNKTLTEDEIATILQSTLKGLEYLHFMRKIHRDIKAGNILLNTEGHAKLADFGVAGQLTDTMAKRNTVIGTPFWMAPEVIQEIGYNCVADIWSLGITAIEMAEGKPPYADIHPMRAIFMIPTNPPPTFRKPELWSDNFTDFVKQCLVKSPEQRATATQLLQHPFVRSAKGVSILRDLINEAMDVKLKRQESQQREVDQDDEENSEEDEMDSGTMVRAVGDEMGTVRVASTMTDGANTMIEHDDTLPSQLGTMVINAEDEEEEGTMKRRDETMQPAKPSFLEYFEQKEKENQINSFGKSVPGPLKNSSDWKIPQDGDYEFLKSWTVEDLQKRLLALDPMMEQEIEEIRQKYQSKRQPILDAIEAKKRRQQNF

[3] = target: RAF proto-oncogene serine/threonine-protein kinase (Homo sapiens) (UniProt P04049)
[4] = target: Insulin-like growth factor 1 receptor (Homo sapiens) (UniProt P08069)
[5] = target: Glycogen synthase kinase-3 beta (Homo sapiens) (UniProt P49841)
[6] = target: Cyclin-dependent kinase 2 (Homo sapiens) (UniProt P24941)
[7] = target: Dual specificity protein kinase CLK3 (Homo sapiens) (UniProt P49761)
[8] = target: T2, Tyrosine-protein kinase ITK/TSK (Homo sapiens) (UniProt Q08881)
T2 sequence (whole entry): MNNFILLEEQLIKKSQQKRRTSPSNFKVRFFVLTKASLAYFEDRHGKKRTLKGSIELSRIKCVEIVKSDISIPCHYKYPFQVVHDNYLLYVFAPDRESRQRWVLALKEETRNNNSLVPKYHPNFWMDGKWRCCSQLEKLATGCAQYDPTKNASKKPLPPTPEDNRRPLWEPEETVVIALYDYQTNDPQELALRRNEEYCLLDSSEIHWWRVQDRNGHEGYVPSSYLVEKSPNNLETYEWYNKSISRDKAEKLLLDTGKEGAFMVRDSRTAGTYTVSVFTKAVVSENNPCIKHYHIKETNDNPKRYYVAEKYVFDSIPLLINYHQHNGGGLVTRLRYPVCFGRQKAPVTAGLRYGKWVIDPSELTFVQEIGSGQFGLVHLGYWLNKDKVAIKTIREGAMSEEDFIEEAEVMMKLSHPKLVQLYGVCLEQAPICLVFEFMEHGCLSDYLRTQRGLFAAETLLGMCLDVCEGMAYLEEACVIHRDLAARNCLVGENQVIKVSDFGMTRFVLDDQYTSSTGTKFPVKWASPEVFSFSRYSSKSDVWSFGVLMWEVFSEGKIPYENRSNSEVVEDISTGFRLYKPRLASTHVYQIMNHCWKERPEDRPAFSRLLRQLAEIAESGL

[9] = target: Receptor tyrosine-protein kinase erbB-3 (Homo sapiens) (UniProt P21860)
[10] = target: T3, Phosphatidylinositol 3-kinase C2 domain-containing subunit gamma (Homo sapiens) (UniProt O75747)
T3 sequence (whole entry): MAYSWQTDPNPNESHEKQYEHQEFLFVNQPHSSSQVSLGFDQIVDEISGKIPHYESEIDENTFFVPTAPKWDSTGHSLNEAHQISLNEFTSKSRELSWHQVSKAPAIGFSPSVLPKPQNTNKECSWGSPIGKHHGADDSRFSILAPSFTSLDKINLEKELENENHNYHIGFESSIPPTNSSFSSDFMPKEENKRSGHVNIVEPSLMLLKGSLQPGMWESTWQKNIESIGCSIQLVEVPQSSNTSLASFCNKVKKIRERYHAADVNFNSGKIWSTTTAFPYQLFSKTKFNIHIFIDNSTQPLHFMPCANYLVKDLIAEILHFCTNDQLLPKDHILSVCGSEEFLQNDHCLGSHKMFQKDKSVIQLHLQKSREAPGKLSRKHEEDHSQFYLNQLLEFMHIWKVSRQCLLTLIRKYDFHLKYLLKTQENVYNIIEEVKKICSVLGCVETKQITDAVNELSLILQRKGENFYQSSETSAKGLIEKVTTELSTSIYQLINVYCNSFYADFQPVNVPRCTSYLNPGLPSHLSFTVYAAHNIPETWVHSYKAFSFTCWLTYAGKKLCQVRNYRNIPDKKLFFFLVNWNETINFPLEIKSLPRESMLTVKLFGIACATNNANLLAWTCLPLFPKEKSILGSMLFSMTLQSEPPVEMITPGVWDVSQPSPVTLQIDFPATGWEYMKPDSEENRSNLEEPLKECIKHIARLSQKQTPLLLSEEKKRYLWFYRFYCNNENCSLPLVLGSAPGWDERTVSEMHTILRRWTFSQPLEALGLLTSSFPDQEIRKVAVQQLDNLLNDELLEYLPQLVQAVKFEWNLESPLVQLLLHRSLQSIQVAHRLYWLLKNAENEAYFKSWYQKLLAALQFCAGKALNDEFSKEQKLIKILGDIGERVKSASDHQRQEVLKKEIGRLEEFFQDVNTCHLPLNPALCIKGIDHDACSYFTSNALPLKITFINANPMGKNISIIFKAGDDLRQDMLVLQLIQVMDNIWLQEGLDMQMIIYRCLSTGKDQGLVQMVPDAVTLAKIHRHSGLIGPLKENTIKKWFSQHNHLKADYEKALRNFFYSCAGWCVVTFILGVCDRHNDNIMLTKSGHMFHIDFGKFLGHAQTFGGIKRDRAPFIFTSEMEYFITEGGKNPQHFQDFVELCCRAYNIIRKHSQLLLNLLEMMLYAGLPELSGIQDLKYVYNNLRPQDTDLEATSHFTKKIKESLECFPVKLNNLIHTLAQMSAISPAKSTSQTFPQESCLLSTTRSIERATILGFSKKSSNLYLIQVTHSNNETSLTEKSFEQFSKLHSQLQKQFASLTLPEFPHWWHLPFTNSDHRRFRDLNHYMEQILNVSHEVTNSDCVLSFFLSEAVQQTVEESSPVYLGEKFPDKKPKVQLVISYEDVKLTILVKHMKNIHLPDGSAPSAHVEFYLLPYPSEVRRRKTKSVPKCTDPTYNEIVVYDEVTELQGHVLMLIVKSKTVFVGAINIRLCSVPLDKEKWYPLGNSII

Measured: residual activity

Sequence of Insulin-like growth factor 1 receptor (Homo sapiens) (P08069 31-736 limits assumed): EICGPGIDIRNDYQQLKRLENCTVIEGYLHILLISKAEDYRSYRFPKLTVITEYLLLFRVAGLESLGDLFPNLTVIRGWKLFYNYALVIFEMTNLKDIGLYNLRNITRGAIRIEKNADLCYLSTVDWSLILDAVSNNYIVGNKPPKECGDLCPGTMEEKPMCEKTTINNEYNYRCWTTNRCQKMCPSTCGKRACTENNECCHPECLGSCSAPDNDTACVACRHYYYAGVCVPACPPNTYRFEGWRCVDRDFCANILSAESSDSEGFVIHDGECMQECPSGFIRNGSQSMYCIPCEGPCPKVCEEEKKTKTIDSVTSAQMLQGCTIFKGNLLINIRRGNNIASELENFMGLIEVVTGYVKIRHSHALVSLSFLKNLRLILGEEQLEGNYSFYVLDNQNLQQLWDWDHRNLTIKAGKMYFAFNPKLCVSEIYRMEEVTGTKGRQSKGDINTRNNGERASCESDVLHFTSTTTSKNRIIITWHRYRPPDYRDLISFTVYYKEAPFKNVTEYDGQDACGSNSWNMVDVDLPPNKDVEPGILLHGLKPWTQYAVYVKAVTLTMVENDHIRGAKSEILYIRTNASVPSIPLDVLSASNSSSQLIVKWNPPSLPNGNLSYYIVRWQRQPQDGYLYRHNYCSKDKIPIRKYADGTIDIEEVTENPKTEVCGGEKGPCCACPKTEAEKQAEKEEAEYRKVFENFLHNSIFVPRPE
Sequence of Insulin-like growth factor 1 receptor (Homo sapiens) (P08069 741-1367 limits assumed): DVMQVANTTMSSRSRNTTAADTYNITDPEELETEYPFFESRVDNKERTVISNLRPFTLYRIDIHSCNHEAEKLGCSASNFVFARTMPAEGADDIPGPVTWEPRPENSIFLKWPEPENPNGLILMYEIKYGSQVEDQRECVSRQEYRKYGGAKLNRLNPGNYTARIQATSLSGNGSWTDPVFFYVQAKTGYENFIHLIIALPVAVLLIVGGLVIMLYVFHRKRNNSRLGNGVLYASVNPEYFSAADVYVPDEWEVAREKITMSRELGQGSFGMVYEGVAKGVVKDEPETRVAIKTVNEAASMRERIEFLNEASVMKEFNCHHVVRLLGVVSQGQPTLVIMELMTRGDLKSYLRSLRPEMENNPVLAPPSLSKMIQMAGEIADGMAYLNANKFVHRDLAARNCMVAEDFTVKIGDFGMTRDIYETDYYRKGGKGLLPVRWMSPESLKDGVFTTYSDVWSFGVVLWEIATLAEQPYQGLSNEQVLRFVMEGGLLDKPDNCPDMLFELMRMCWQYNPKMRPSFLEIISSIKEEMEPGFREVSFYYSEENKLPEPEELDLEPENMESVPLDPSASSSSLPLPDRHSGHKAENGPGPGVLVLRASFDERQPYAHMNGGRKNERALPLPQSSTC
Sequence of Serine/threonine-protein kinase RIO1 (Homo sapiens) (Q9BRS2 whole entry): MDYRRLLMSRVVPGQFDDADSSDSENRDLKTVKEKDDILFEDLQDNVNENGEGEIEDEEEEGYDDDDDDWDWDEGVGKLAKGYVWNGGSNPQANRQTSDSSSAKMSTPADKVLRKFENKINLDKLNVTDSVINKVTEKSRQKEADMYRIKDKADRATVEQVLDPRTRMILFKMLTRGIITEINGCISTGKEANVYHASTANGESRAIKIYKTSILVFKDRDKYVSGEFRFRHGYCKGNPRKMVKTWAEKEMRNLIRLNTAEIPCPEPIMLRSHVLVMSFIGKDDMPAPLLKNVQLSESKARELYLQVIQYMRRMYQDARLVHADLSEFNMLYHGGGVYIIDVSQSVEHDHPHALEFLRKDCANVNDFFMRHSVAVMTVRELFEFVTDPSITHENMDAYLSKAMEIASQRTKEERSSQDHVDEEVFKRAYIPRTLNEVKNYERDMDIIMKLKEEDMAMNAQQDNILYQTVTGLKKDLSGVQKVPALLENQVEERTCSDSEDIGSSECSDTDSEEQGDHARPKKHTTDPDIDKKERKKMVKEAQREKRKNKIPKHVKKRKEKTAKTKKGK
Sequence of Dual specificity protein kinase CLK3 (Homo sapiens) (P49761 whole entry, looked up): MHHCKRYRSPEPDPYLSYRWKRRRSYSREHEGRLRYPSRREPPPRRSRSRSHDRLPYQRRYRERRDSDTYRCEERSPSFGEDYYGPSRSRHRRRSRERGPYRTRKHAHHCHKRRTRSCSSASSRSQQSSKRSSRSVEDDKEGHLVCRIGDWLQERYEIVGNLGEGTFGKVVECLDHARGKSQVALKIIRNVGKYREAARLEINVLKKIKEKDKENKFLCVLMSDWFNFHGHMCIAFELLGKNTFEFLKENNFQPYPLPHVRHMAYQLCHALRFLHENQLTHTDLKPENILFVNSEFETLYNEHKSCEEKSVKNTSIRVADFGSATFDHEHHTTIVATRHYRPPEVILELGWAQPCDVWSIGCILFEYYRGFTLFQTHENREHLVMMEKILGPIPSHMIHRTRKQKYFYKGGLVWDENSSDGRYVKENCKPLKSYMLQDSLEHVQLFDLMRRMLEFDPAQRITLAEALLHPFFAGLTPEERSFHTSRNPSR
Sequence of Receptor tyrosine-protein kinase erbB-3 (Homo sapiens) (P21860 whole entry, the tested form may be a part): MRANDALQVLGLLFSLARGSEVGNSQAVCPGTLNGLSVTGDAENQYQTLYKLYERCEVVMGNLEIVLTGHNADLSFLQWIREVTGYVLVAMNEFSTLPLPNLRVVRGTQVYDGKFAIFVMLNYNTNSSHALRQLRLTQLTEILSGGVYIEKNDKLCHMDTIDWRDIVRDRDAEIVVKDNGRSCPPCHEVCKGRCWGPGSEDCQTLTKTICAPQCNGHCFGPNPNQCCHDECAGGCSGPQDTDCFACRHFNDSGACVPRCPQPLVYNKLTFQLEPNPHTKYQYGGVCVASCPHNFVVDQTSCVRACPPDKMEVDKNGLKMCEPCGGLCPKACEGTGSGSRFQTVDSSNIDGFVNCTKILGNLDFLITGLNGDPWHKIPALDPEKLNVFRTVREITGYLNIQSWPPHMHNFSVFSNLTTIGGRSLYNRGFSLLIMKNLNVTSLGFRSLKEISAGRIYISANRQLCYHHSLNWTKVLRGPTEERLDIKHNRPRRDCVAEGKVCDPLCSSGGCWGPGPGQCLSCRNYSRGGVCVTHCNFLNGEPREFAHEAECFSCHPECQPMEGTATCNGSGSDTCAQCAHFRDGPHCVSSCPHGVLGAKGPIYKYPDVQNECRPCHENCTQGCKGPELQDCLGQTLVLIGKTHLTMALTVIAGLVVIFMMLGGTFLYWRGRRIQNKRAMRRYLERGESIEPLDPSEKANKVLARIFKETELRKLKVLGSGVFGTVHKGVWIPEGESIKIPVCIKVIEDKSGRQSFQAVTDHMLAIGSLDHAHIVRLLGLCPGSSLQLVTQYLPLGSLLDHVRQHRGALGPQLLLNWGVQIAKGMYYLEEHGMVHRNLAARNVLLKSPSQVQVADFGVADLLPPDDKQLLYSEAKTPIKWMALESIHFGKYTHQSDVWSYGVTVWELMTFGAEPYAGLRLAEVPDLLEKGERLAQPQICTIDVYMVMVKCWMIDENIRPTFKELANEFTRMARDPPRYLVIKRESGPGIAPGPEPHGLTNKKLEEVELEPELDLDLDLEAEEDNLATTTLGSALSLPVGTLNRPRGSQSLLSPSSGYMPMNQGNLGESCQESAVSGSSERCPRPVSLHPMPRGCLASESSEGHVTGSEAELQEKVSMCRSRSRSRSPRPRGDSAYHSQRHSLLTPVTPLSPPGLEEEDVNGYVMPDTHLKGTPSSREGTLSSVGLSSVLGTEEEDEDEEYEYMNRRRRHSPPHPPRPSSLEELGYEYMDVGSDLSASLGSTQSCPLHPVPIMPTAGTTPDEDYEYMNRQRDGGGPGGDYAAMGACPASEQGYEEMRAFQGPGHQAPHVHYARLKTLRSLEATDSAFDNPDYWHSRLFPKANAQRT
Sequence of RAF proto-oncogene serine/threonine-protein kinase (Homo sapiens) (P04049 whole entry): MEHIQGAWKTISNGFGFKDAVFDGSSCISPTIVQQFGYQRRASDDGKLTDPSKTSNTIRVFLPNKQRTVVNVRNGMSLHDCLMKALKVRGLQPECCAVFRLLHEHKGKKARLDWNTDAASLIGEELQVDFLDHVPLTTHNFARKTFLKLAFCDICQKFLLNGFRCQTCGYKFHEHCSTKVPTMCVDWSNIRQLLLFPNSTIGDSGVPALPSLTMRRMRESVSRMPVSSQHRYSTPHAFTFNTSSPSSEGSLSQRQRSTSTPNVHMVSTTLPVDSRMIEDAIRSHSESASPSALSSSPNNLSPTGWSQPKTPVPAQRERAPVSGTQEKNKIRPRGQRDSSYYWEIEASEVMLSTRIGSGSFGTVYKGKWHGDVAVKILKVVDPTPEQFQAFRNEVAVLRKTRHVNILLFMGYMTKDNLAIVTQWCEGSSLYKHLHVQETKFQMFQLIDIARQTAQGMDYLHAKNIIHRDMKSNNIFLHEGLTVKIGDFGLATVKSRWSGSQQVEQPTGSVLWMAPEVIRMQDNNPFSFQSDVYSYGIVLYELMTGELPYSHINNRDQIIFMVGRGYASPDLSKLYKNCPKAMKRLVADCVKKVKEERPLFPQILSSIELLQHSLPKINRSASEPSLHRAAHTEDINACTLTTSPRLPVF
Sequence of Glycogen synthase kinase-3 beta (Homo sapiens) (P49841 whole entry, looked up): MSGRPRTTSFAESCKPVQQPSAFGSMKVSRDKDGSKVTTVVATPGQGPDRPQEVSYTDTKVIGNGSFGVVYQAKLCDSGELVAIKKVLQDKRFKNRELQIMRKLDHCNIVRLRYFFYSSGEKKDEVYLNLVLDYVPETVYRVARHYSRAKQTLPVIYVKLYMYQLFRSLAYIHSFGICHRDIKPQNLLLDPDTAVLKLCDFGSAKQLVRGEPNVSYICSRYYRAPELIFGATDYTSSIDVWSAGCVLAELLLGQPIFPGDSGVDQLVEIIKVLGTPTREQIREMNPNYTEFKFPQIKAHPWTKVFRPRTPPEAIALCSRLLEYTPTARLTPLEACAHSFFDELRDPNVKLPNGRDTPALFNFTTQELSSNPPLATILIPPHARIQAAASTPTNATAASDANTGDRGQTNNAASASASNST

CCc1ccccc1C(=O)Nc1n[nH]c2c(C)c(F)c(C3C(C#N)=C(C)N(C)C(C)=C3C#N)cc12 [BAY-3827]
inactive: [1] 82% | [2] 98% | [3] 63% | [4] 87% | [5] 100% | [6] 100% | [7] 100% | [8] 86% | [9] 91% | [10] 95%

CC1=C(C#N)C(c2ccc3c(c2)c(NC(=O)c2ccccc2C)nn3C)C(C#N)=C(C)N1 [BAY-974]
inactive: [1] 93% | [2] 80% | [3] 100% | [4] 96% | [5] 81% | [6] 86% | [7] 94% | [8] 97% | [9] 100% | [10] 61%
